This is an account of results in US20160158200A1, “Combinations of Hepatitis C Virus Inhibitors” (priority 2013, published 2016).

The test has as its system HCV genotype-1a variant with glutamine 30 changed to glutamate in the NS5A protein. The class given is cell-based. The conditions noted are these: test compound titrated with BMS-790052 fixed at 200 nM; genotype 1a Q30E replicon. The method, boiled down: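 Synergy was assessed by combining several fixed amounts of an NS5A-targeting compound with a titration of the second compound of interest.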
(In general: In antiviral work, replicon cells carry a viral genome segment that copies itself.)

Where only a bound is given, the exact number is not on record here.

`CC(C)(C(=O)N[C@H](c1nc(-c2ccc(-c3ccc(-c4cnc([C@@H](NC(=O)C(C)(C)C5CCOC5)C(C)(C)C)[nH]4)cc3)cc2)c[nH]1)C(C)(C)C)C1CCOC1` (some centres unmarked) [Compound B-168]: the “Fold-Synergistic 1a (Q30E)” value is on record as above 100 fold.

On to `CC(C)(C)[C@H](NC(=O)C1CCC(F)(F)CC1)c1ncc(-c2ccc([C@@H]3C[C@H]3c3ccc(-c4cnc([C@@H](NC(=O)C5CCC(F)(F)CC5)C(C)(C)C)[nH]4)cc3)cc2)[nH]1` [Compound B-190], for which the “Fold-Synergistic 1a (Q30E)” value is recorded as above 100 fold. As for `CC(C)[C@H](NC(=O)OCC(C)(C)C)c1ncc(-c2ccc(-c3ccc(-c4cnc([C@@H](NC(=O)OCC(C)(C)C)C(C)C)[nH]4)cc3)cc2)[nH]1` [Compound S-210], the figure is above 100 fold; as for `CC(C)(C)[C@H](NC(=O)C1(C2(O)CCC(F)(F)CC2)CC1)c1nc(-c2ccc(-c3ccc(-c4c[nH]c([C@@H](NC(=O)C5(C6(O)CCC(F)(F)CC6)CC5)C(C)(C)C)n4)cc3)cc2)c[nH]1` [Compound P-146], above 100 fold. As for `CC(C)(C)[C@H](NC(=O)C1CCN(S(C)(=O)=O)CC1)c1nc(-c2ccc(-c3ccc(-c4c[nH]c([C@@H](NC(=O)C5CCN(S(C)(=O)=O)CC5)C(C)(C)C)n4)cc3)cc2)c[nH]1` [Compound S-255], the figure is above 100 fold; as for `Cc1ccc(C(=O)N[C@H](c2nc(-c3ccc(-c4ccc(-c5c[nH]c([C@@H](NC(=O)c6ccc(C)s6)C(C)(C)C)n5)cc4)cc3)c[nH]2)C(C)(C)C)s1` [Compound N-64], above 100 fold.

With `CC(C)[C@H](NC(=O)c1ccc(C#N)cc1)c1ncc(-c2ccc(-c3ccc(-c4cnc([C@@H](NC(=O)c5ccc(C#N)cc5)C(C)C)[nH]4)cc3)cc2)[nH]1` [Compound S-81], the “Fold-Synergistic 1a (Q30E)” value is given as above 100 fold. On to `CC(C)(C)[C@H](NC(=O)C1CCCCC1CO)c1nc(-c2ccc(-c3ccc(-c4c[nH]c([C@@H](NC(=O)C5CCCCC5CO)C(C)(C)C)n4)cc3)cc2)c[nH]1` (single isomer, unassigned) [Compound L-141a], for which the “Fold-Synergistic 1a (Q30E)” value is given as above 100 fold. The value for `CC(C)C(NC(=O)C1CC(O)CN1C(=O)OC(C)(C)C)c1nc(-c2ccc(-c3ccc(-c4c[nH]c(C(NC(=O)C5CC(O)CN5C(=O)OC(C)(C)C)C(C)C)n4)cc3)cc2)c[nH]1` (centres unmarked) [Compound W-100] was above 100 fold; that for `CC(C)(C)C(NC(=O)C1(C)CC1(F)F)c1nc(-c2ccc(-c3ccc(-c4c[nH]c(C(NC(=O)C5(C)CC5(F)F)C(C)(C)C)n4)cc3)cc2)c[nH]1` (single isomer, unassigned) [Compound L-58b] was above 100 fold. Consider `CC(C)[C@H](NC(=O)c1cccc(Cl)c1)c1ncc(-c2ccc(-c3ccc(-c4cnc([C@@H](NC(=O)c5cccc(Cl)c5)C(C)C)[nH]4)cc3)cc2)[nH]1` [Compound S-74], for which the “Fold-Synergistic 1a (Q30E)” value is on record as above 100 fold. With `CC1(C(=O)NC(c2nc(-c3ccc(-c4ccc(-c5c[nH]c(C(NC(=O)C6(C)CC(F)(F)CCO6)C(C)(C)C)n5)cc4)cc3)c[nH]2)C(C)(C)C)CC(F)(F)CCO1` (centres unmarked) [Compound Y-75], the “Fold-Synergistic 1a (Q30E)” value is above 100 fold. `CC(C)[C@H](NC(=O)c1cccc2c1OCC2)c1ncc(-c2ccc(-c3ccc(-c4cnc([C@@H](NC(=O)c5cccc6c5OCC6)C(C)C)[nH]4)cc3)cc2)[nH]1` [Compound S-55]: the “Fold-Synergistic 1a (Q30E)” value is given as above 100 fold. For `CC(C)[C@H](NC(=O)C1CCC(F)(F)CC1)c1ncc(-c2ccc(-c3ccc(-c4cnc([C@@H](NC(=O)C5CCC(F)(F)CC5)C(C)C)n4C)cc3)cc2)n1C` [Compound B-200], the “Fold-Synergistic 1a (Q30E)” value is below 10 fold. As for `CC(C)(C)OC(=O)NC1(C(=O)N[C@H](c2nc(-c3ccc(-c4ccc(-c5c[nH]c([C@@H](NC(=O)C6(NC(=O)OC(C)(C)C)CC6(F)F)C(C)(C)C)n5)cc4)cc3)c[nH]2)C(C)(C)C)CC1(F)F` (single isomer, unassigned) [Compound W-15], the figure is above 100 fold. As for `COC(C)(CCO)C(=O)N[C@H](c1nc(-c2ccc(-c3ccc(-c4c[nH]c([C@@H](NC(=O)C(C)(CCO)OC)C(C)(C)C)n4)cc3)cc2)c[nH]1)C(C)(C)C` (single isomer, unassigned) [Compound W-258], the “Fold-Synergistic 1a (Q30E)” value is listed as above 100 fold. `CC(C)[C@H](NC(=O)C1CCC(F)(F)CC1)c1ncc(-c2ccc3cc4cc(-c5cnc([C@@H](NC(=O)C6CCC(F)(F)CC6)C(C)C)[nH]5)ccc4cc3c2)[nH]1.O=C(O)C(F)(F)F` [Compound B29]: the “Fold-Synergistic 1a (Q30E)” value was above 100 fold. As for `Cc1cc(C(=O)N[C@H](c2ncc(-c3ccc(-c4ccc(-c5cnc([C@@H](NC(=O)c6cc(C)on6)C(C)C)[nH]5)cc4)cc3)[nH]2)C(C)C)no1` [Compound S-18], the figure is above 100 fold. Turning to `CC(C)CC(=O)NC1(c2ncc(-c3ccc(-c4ccc(-c5cnc(C6(NC(=O)CC(C)C)CCCCC6)[nH]5)cc4)cc3)[nH]2)CCCCC1.O=C(O)C(F)(F)F.O=C(O)C(F)(F)F` [Compound N-24], the “Fold-Synergistic 1a (Q30E)” value was below 10 fold. `CC(C)(C)[C@H](NC(=O)C(=O)N1CCCCC1)c1nc(-c2ccc(-c3ccc(-c4c[nH]c([C@@H](NC(=O)C(=O)N5CCCCC5)C(C)(C)C)n4)cc3)cc2)c[nH]1` [Compound W-11]: the “Fold-Synergistic 1a (Q30E)” value is above 100 fold. As for `CC(C)[C@H](NC(=O)[C@H](C)c1ccccc1)c1ncc(-c2ccc(-c3ccc(-c4cnc([C@@H](NC(=O)[C@H](C)c5ccccc5)C(C)C)[nH]4)cc3)cc2)[nH]1` [Compound P-64], the figure is above 100 fold; as for `CCC(=O)N[C@H](c1ncc(-c2ccc(-c3ccc(-c4cnc([C@@H](NC(=O)CC)C(C)C)[nH]4)cc3)cc2)[nH]1)C(C)C` [Compound S-31], above 100 fold. Turning to `CC1(C(NC(=O)C2(O)CCC(F)(F)CC2)c2nc(-c3ccc(-c4ccc(-c5c[nH]c(C(NC(=O)C6(O)CCC(F)(F)CC6)C6(C)CC6)n5)cc4)cc3)c[nH]2)CC1.O=C(O)C(F)(F)F.O=C(O)C(F)(F)F` (centres unmarked) [Compound P-151], the “Fold-Synergistic 1a (Q30E)” value is above 100 fold. For `CC(C)(C)[C@H](NC(=O)C1C(C)(C)C1(C)C)c1nc(-c2ccc(-c3ccc(-c4c[nH]c([C@@H](NC(=O)C5C(C)(C)C5(C)C)C(C)(C)C)n4)cc3)cc2)c[nH]1` [Compound N-55], the “Fold-Synergistic 1a (Q30E)” value was above 100 fold.

Take `CN(C(=O)OC(C)(C)C)C1(C(=O)N2CCC(C)(C)C2c2nc(-c3ccc(-c4ccc(-c5c[nH]c(C6N(C(=O)C7(N(C)C(=O)OC(C)(C)C)CC7)CCC6(C)C)n5)cc4)cc3)c[nH]2)CC1` (centres unmarked) [Compound W-226]: the “Fold-Synergistic 1a (Q30E)” value is listed as above 10 fold. For the molecule `CC(C)(F)C(NC(=O)C1CCC(F)(F)CC1)c1nc(-c2ccc(-c3ccc(-c4c[nH]c(C(NC(=O)C5CCC(F)(F)CC5)C(C)(C)F)n4)cc3)cc2)c[nH]1` (single isomer, unassigned) [Compound N-106B], the “Fold-Synergistic 1a (Q30E)” value is above 100 fold. On to `COC(C)(COCc1ccccc1)C(=O)N[C@H](c1nc(-c2ccc(-c3ccc(-c4c[nH]c([C@@H](NC(=O)C(C)(COCc5ccccc5)OC)C(C)(C)C)n4)cc3)cc2)c[nH]1)C(C)(C)C.O=C(O)C(F)(F)F.O=C(O)C(F)(F)F` (single isomer, unassigned) [Compound W-231], for which the “Fold-Synergistic 1a (Q30E)” value is listed as above 100 fold.

For `CC(C)[C@H](NC(=O)C(F)(F)c1ccccc1)c1ncc(-c2ccc(-c3ccc(-c4cnc([C@@H](NC(=O)C(F)(F)c5ccccc5)C(C)C)[nH]4)cc3)cc2)[nH]1` [Compound P-97], the “Fold-Synergistic 1a (Q30E)” value is above 100 fold. As for `CC1(C(=O)N2CCC[C@H]2c2ncc(-c3ccc(-c4ccc(-c5cnc([C@@H]6CCCN6C(=O)C6(C)CC6)[nH]5)cc4)cc3)[nH]2)CC1` [Compound S-160], the figure is below 10 fold; as for `CC(CO)(OCCF)C(=O)N[C@H](c1nc(-c2ccc(-c3ccc(-c4c[nH]c([C@@H](NC(=O)C(C)(CO)OCCF)C(C)(C)C)n4)cc3)cc2)c[nH]1)C(C)(C)C` (single isomer, unassigned) [Compound W-270], above 100 fold. For the molecule `CC(C)[C@H](NC(=O)C(C)(C)F)c1nc(-c2ccc(-c3ccc(-c4c[nH]c([C@@H](NC(=O)C(C)(C)F)C(C)C)n4)cc3F)cc2)c[nH]1.O=C(O)C(F)(F)F` [Compound N-97], the “Fold-Synergistic 1a (Q30E)” value was above 100 fold. As for `CC(C)(C)[C@H](NC(=O)C1CCC(F)(F)CC1)c1ncc(-c2ccc(-c3ccc4c(ccc5nc([C@@H](NC(=O)C6CCC(F)(F)CC6)C(C)(C)C)[nH]c54)c3)cc2)[nH]1` [Compound B17], the figure is above 100 fold.

For `CC(C)CC(=O)N[C@@H](c1nc(-c2ccc(-c3ccc(-c4c[nH]c([C@H](NC(=O)CC(C)C)C(C)(C)C)n4)cc3)cc2)c[nH]1)C(C)(C)C` [Compound N-67], the “Fold-Synergistic 1a (Q30E)” value is given as above 10 fold. In the case of `Cc1cc(-c2ccc(-c3c[nH]c([C@@H](NC(=O)C4CCC(F)(F)CC4)C(C)C)n3)cc2)ccc1-c1c[nH]c([C@@H](NC(=O)C2CCC(F)(F)CC2)C(C)C)n1.O=C(O)C(F)(F)F` [Compound N-82], the “Fold-Synergistic 1a (Q30E)” value is on record as above 100 fold. As for `CC(C)(CO)C(=O)NC(c1nc(-c2ccc(-c3ccc(-c4c[nH]c(C(NC(=O)C(C)(C)CO)C(C)(C)C)n4)cc3)cc2)c[nH]1)C(C)(C)C` [Compound L-56], the figure is above 100 fold; as for `CC(C)[C@H](NC(=O)c1ccccc1F)c1ncc(-c2ccc(-c3ccc(-c4cnc([C@@H](NC(=O)c5ccccc5F)C(C)C)[nH]4)cc3)cc2)[nH]1` [Compound P-63], above 100 fold. In the case of `CC1(C)CCN(C(=O)c2ccc(-c3ccccc3)cc2)C1c1nc(-c2ccc(-c3ccc(-c4c[nH]c(C5N(C(=O)c6ccc(-c7ccccc7)cc6)CCC5(C)C)n4)cc3)cc2)c[nH]1` (centres unmarked) [Compound W-227], the “Fold-Synergistic 1a (Q30E)” value is reported as above 100 fold.

Consider `CC(C)(C)[C@H](NC(=O)C1CCC(F)(F)CC1)c1ncc(-c2cc3cc4oc(-c5cnc([C@@H](NC(=O)C6CCC(F)(F)CC6)C(C)(C)C)[nH]5)cc4cc3o2)[nH]1` [Compound B59], for which the “Fold-Synergistic 1a (Q30E)” value is above 100 fold.
